Experimental data reported in patent publication US11932620B1, “Ethyl 2-[9-(6-flouro-2-hydroxyquinolin-3-yl)-1,8-dioxo-3,4,9,10-tetrahydroacridine-10-yl]-acetate as an antimicrobial compound” (KING FAISAL UNIVERSITY, priority 2023, dated 2024).

Legend:
Type in all cases: cell-based
Details in all cases: after 10, 20, 40 and 60 minutes at all dilutions 1:100, 1:200, 1:400, 1:800
Candida albicans = test: Antimicrobial screening by agar dilution, Candida albicans
Description: (§1) The antibacterial properties of the synthesized compound ethyl 2-[9-(6-fluoro-2-hydroxyquinolin-3-yl)-1,8-dioxo-3,4,9,10-tetrahydroacridine-10-yl]-acetate were studied by the method of agar dilution. Test solutions of each compound was prepared in concentration of 1% using dimethylformamide as a solvent then they are diluted in physiological solution to obtain the final experimental dilutions 1:100, 1:200, 1:400, 1:800. The effect of these substances are compared with furacillin in a controllable study. The testing microbes used were gram positive bacteria Staphylococcus aureus, gram negative bacteria Pseudomonas aeruginosa and Escherichia coli and Candida albicans fungus. The experiments used for this survey were meat-pentonlu agar (EPA) for cultivation of bacteria and Saburo environment for the fungus. Each experiment used 1 mL of test solution on each plate […]. Two drops of emulsified with microbes feel were added. All experimental samples were taken from the agar after 10, 20, 40, 60 minutes in the environment on the basis of Patrk planted. The bacteria were cultivated at a temperature of 37° C. for 1 day and the mushroom was kept in a thermostat for 2 hours at a temperature of 28° C. Then results were checked. Results of the control (Furacilin) and the antimicrobial activity for the synthesized compounds are listed in are listed in Table 1.

Escherichia coli = test: Antimicrobial screening by agar dilution, Escherichia coli
Description: as §1

Pseudomonas aeruginosa = test: Antimicrobial screening by agar dilution, Pseudomonas aeruginosa
Description: as §1

Staphylococcus aureus = test: Antimicrobial screening by agar dilution, Staphylococcus aureus
Description: as §1

Measured: inhibition activity (in words)

CCOC(=O)CN1C2=C(C(=O)CCC2)C(c2cc3cc(F)ccc3nc2O)C2=C1CCCC2=O [ethyl 2-[9-(6-fluoro-2-hydroxyquinolin-3-yl)-1,8-dioxo-3,4,9,10-tetrahydroacridine-10-yl]-acetate]
highest inhibition activity: all assays above
